# In patent publication US20060020027A1, “Use of curcumanoids as histone acetyltransferases (HATs) inhibitors” (priority 2004, published 2006):
# Assays:
# [1] = target: p300 (Homo sapiens, UniProt Q09472); assay: Histone acetyltransferase (HAT) assay, filter binding and gel, with p300; assay type: biochemical; details: varying acetyl CoA or histone concentration; 25 and 30 μM curcumin
# Excerpt: The results were plotted using the Graph Pad Prism software.
# [2] = target: CBP (Homo sapiens, UniProt Q92793); assay: Histone acetyltransferase (HAT) assay with CBP; assay type: biochemical; details: core histones
# Method: (§1) Histone acetyltransferase Assay: HAT assays were performed as described previously (30). […] The reaction mixture was then blotted onto P-81 (Whatman) filter paper and radioactive counts were recorded on a Wallac 1409 liquid scintillation counter. The radiolabeled acetylated histones were visualized by resolving on 15% SDS-polyacrylamide gel and subjected to fluorography followed by autoradiography.
# [3] = target: PCAF (Homo sapiens, UniProt Q92831); assay: Histone acetyltransferase (HAT) assay with PCAF; assay type: biochemical; details: 100 μM curcumin
# PCAF, sequence (Q92831 whole entry, species assumed): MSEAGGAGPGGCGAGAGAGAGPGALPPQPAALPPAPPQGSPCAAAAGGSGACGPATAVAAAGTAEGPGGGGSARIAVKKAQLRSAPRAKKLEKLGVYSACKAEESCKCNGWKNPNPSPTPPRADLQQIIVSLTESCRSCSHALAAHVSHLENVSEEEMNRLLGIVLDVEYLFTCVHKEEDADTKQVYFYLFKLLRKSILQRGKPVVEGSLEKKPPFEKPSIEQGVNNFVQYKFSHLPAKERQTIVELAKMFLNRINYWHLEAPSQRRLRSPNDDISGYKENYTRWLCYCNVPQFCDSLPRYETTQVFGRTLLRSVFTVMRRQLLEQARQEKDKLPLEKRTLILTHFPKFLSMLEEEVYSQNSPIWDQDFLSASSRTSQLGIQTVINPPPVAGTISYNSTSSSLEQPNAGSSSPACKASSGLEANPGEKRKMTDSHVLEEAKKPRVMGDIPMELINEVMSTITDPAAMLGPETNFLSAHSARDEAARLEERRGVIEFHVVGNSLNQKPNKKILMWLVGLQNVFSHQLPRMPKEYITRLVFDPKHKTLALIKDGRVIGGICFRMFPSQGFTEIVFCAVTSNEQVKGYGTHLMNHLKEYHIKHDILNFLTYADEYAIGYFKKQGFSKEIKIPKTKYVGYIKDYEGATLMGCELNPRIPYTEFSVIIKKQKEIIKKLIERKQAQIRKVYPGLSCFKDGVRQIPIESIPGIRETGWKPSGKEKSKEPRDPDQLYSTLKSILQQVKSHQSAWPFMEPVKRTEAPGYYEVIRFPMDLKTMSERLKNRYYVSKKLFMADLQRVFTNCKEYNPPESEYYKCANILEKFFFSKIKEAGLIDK
# Method: as §1
# [4] = target: T1, lysine methyltransferase G9a (Homo sapiens, UniProt Q96KQ7); assay: Histone methyltransferase assay with G9a; assay type: biochemical; details: 50 and 100 μM curcumin
# T1 construct: bacterially expressed HMTase domain of G9a fused to GST (31); GST; made in house
# T1 sequence (Q96KQ7 830-1209 limits assumed): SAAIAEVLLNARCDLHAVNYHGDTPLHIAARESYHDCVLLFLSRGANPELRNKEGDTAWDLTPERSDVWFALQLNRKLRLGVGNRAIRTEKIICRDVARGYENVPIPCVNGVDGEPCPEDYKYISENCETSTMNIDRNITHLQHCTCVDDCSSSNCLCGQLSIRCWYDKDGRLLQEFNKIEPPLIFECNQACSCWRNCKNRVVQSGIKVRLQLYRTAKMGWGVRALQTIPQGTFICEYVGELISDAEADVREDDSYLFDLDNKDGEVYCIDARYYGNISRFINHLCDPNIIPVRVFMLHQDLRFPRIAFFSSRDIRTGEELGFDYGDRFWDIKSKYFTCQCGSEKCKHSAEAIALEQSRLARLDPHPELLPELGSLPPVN
# Method: (§2) Histone methyltransferase and deacetylase Assays: Histone methyltransferase assays were performed in a 30 μl reaction. […] After the initial incubation, 1 μl of 8.3 Ci/mmol ^3H—S— Adenosyl Methionine was added to the reaction mixtures and the incubation continued for 1 hour (in the case of nuclear extract) or for 15 minutes (in the case of G9a). The reaction products were TCA precipitated, resolved on 15% SDS-PAGE and subjected to fluorography followed by autoradiography.
# (§3) The reaction products were TCA precipitated, resolved on 15% SDS-PAGE and subjected to fluorography followed by autoradiography.
# [5] = tested on: histone methyltransferase enzymes of HeLa nuclear extract; assay: Histone methyltransferase assay with HeLa nuclear extract; assay type: biochemical; details: 50 and 100 μM curcumin
# Method: as §2, §3
# [6] = tested on: transcription from DNA template; assay: In vitro transcription from DNA template; assay type: biochemical; details: even at 300 μM
# Method: (§4) In vitro Transcription Assay: Transcription assays were carried out as described elsewhere (9) with the necessary modifications. The reconstituted chromatin template (containing 30 ng DNA) or an equimolar amount of histone—free DNA was incubated with 50 ng of activator (Gal4-VP16) in a buffer containing 4 mM HEPES (pH 7.8), 20 mM KCl, 2 mM DTT, 0.2 mM PMSF, 10 mM sodium butyrate, 0.1 mg/ml bovine serum albumin, 2% glycerol. […] HeLa nuclear extract (5 μl, which contains 8 mg/ml protein) was added then to initiate the preinitiation complex formation. Transcription reaction was started by the addition of NTP-mix and α-[^32P] UTP after the preinitiation complex formation and incubated further for 40 min at 30° C. For loading control separate reaction was setup with ˜25 ng of supercoiled ML200 DNA, and the transcription assay was carried out as described above, without the addition of the activator (Gal4-VP16) and 2 μl of this reaction was added to each of the transcription reactions. […] Transcripts were analysed by 5% Urea-PAGE and quantification of transcription was done by phosphoimager (Fuji) analysis. […]
# (§5) (A), Schematic representation of the in vitro transcription protocol. […] The in vitro transcription reaction mixtures were analyzed on 5% urea-acrylamide gel and further processed by autoradiography.
# [7] = tested on: p300 HAT activity dependent chromatin transcription; assay: In vitro transcription from chromatin template; assay type: biochemical
# Method: In Vitro Chromatin Assembly: Chromatin template for in vitro transcription experiments was assembled and characterized as described earlier (9).
# as §4, with “C.” for “C. For loading control separate reaction was setup with ˜25 ng of supercoiled ML200 DNA, and the transcription assay was carried out as described above, without the addition of the activator (Gal4-VP16) and 2 μl of this reaction was added to each of the transcription reactions.”
# as §5
# [8] = tested on: HeLa cells; assay: Apoptosis assay (Hoechst staining, nuclear fragmentation); assay type: cell-based; details: 24 hours exposure to 75-100 μM
# Method: Apoptosis assay: Curcumin-induced apoptosis was monitored by the extent of nuclear fragmentation. Nuclear fragmentation was visualized by Hoechst staining of apoptotic nuclei. The apoptotic cells were collected by centrifugation, washed with PBS and fixed in 4% paraformaldehyde for 20 minutes at room tempertature. Subsequently the cells were washed and resuspended in 20 μl PBS before depositing it on poly lysine-coated coverslips and were left to adhere on cover slips for 30 min at room temperature after which the cover slips were washed twice with PBS. The adhered cells were then incubated with 0.1% Triton X-100 for 5 min at room temperature and rinsed with PBS for three times. The coverslips were treated with Hoechst 33258 for 30 minutes at 37° C., rinsed with PBS and mounted them on slides with glycerol-PBS and processed as described previously (29).
# Arrows indicate apoptotic nuclear fragmentation
# [9] = tested on: acetylation of histones in HeLa cells; assay: In vivo histone acetylation in cells (AUT gel and western blotting); assay type: cell-based
# Method: Acid/Urea/Triton (A UT) polyacrylamide gel electrophoresis and Western Blotting for in vivo acetylated histones: HeLa cells (3×10^6 cells per 90 mm dish) were seeded overnight and histones were extracted from 24 hours of compound treated cells as reported earlier (29,32). Briefly, cells were harvested, washed in ice-cold buffer A (150 mM KCl, 20 mM HEPES, pH 7.9, 0.1 mM EDTA and 2.5 mM MgCl2) and lysed in buffer A containing 250 mM sucrose and 1% (v/v) Triton X 100. Nuclei were recovered by centrifugation, washed, and proteins were extracted for 1 h using 0.25 M HCl. The proteins were precipitated with 25% (w/v) trichloroacetic acid (TCA) and sequentially washed with ice-cold acidified acetone (20 μl of 12N HCl in 100 ml acetone), and acetone, air-dried and dissolved in the sample buffer (5.8 M urea, 0.9 M glacial acetic acid, 16% glycerol, and 4.8% 2-mercaptoethanol). The histones (equal amounts in all lanes) were resolved on AUT gel as described elsewhere (33,34).
# For western blotting, the quantitated protein samples were run on a 12% SDS-polyacrylamide gel and following electrophoresis, proteins on the gel were electrotransferred onto an immobilon membrane (PVDF; Millipore Corp., Bedford, Mass.). The membranes were then blocked in 5% skim milk powder solution in 1×PBS containing 0.05% Tween 20 and then immunoblotted with anti-acetyl H3 (Calbiochem), anti-acetyl H4 (a kind gift from Dr. Alaine Verrault) and anti-H3 respectively. Detection was performed using goat anti-rabbit secondary antibody (Bangalore Genei) and bands were visualized by ECL detection system (Pierce).
# (B) HeLa cells were treated as indicated, for 24 hours, histones were extracted and separated on an 18% acid/urea/triton (AUT) PAGE. The protein bands were visualized by Coomassie brilliant blue staining. […] Asterisk (*) indicates hyperacetylation of histones in response to HDAC inhibition by TSA and sodium butyrate. […] (C). The acid-extracted histones were resolved over 12% SDS-PAGE and were analyzed by western blot using antibodies against acetylated histone H3 and H4. Loading and transfer of equal amounts of protein were confirmed by immunodetection of histone H3. (D) 293 T cells were transiently transfected with CMV-p53 and CMV-p300 either alone or in combination as indicated. […] The p53 protein was immunoprecipitated from the cell lysates using p53 monoclonal antibody and acetylation status was analyzed by western blotting. Lanes 1 and 4, transfection with p53 alone; lanes 2 and 5, co-transfection with p53 and p300; lanes 3 and 6, transfection with p300 alone. (IP:Immunoprecipitation and IB: Immunoblotting).
# [10] = tested on: acetylation of p53 in 293 T cells; assay: p53 acetylation in transfected cells (immunoprecipitation, western blotting); assay type: cell-based; details: 24 hours
# Method: 293 T cells were transfected with CMV-p53 and CMV-p300 using Lipofectamine 2000 reagent (Invitrogen) according to the manufacturer's instructions. […] The cells were harvested using RIPA buffer (150 mM NaCl, 50 mM Tris pH 7.4, 1% NP40, 0.1% Sodium deoxycholate, 1 mM EDTA, 0.5 μg/ml leupeptin, 0.5 μg/ml aprotinin and 0.5 μg/ml pepstatin) and the p53 protein was immunoprecipitated from the lysates using mouse monoclonal anti-p53 antibody, DO1 (oncogene). The immunocomplexes were bound on protein G-sepharose beads (Amersham Pharmacia) for 12 hours at 4° C., washed 3 times with RIPA buffer and subjected to SDS-PAGE on a 10% gel followed by western blotting using mouse monoclonal anti-p53 antibody, pAb421 or mouse monoclonal anti-acetylated lysine antibody.
# (B) HeLa cells were treated as indicated, for 24 hours, histones were extracted and separated on an 18% acid/urea/triton (AUT) PAGE. The protein bands were visualized by Coomassie brilliant blue staining. […] Asterisk (*) indicates hyperacetylation of histones in response to HDAC inhibition by TSA and sodium butyrate. […] (C). The acid-extracted histones were resolved over 12% SDS-PAGE and were analyzed by western blot using antibodies against acetylated histone H3 and H4. […] The p53 protein was immunoprecipitated from the cell lysates using p53 monoclonal antibody and acetylation status was analyzed by western blotting. […]
# [11] = tested on: HIV-1 (H9/HTLV-IIIb NIH 1983 cells cocultured with SupT1 cells); assay: Syncytium inhibition assay; assay type: cell-based; details: 12 h
# Method: Syncytium inhibition assay: The cell lines SupT1 and H9/HTLV-IIIb NIH 1983 were obtained from The AIDS Research and Reference Reagent Program. H9/HTLV-IIIb NIH 1983 cells carrying a stably integrated provirus were cocultured with excess numbers of SupT1 cells at a ration of 1:200 or 1:400. A total of […] were seeded per well in a 24-well plate and cultured in RPMI medium supplemented with 10% fetal calf serum and antibiotics. […] All the wells received the same amount of DMSO including the control wells. Formation of syncytia was visible under light microscope within 12 hrs. The total number of syncytia in 10 representative wells was counted at different time points (12, 24 and 48 h) and data for 12 h time point are presented. Identical results were obtained at other time points. All the assays were performed in triplicate wells and the experiment was performed two times.
# (A), H9/HTLV-IIIb NIH 1983 carrying stable integrated virus were cocultured with excess numbers of SupT1 cells at 1:200 or 1:400 ratio. A total of 0.1×10^6 cells were seeded per well. […] Formation of syncytia is visible under light microscope within 12 hrs. The total number of syncytia in 10 representative wells was counted and presented. The data are representative of 2 independent experiments.
# [12] = tested on: SupT1 cells; assay: Trypan blue exclusion analysis of viable cells; assay type: cell-based; details: 100 μM curcumin, 48 hrs
# Excerpt: Various experimental formats have been used to evaluate infection of target cells by HIV or inhibition of the viral infection in the presence of an anti-viral compound (44, 45). The standard format is to add titered viral stock to the target cells at a known multiplicity of infection (MOI) in the presence or absence of an anti-viral compound and monitor the synthesis of the viral structural protein p24 or the enzyme reverse transcriptase (46, 47). In the natural context, the viral transfer is more efficient through cell-to-cell contact rather than free virus infecting a target cell. Prevention of the viral transfer between cells is technically more difficult than neutralizing the free virus. SupT1 cells are highly […] for HIV-1 and these cells make numerous and large syncytia when infected with the virus. Taking advantage of this property, we co-cultured SupT1 cells in the presence of H9/HTLV-IIIb NIH 1983 cells that produce a T-cell tropic virus. […] To rule out the possibility of cytotoxicity and cell death, we determined the number of viable cells in all the wells using a trypan blue exclusion analysis.
# [13] = target: T2, p300 (substrate HIV-Tat protein) (Homo sapiens, UniProt Q09472); assay: Acetylation of Tat protein by p300 (HAT assay); assay type: biochemical; details: […] and 50 μM curcumin
# T2 construct: made in house
# T2 sequence (Q09472 whole entry, species assumed): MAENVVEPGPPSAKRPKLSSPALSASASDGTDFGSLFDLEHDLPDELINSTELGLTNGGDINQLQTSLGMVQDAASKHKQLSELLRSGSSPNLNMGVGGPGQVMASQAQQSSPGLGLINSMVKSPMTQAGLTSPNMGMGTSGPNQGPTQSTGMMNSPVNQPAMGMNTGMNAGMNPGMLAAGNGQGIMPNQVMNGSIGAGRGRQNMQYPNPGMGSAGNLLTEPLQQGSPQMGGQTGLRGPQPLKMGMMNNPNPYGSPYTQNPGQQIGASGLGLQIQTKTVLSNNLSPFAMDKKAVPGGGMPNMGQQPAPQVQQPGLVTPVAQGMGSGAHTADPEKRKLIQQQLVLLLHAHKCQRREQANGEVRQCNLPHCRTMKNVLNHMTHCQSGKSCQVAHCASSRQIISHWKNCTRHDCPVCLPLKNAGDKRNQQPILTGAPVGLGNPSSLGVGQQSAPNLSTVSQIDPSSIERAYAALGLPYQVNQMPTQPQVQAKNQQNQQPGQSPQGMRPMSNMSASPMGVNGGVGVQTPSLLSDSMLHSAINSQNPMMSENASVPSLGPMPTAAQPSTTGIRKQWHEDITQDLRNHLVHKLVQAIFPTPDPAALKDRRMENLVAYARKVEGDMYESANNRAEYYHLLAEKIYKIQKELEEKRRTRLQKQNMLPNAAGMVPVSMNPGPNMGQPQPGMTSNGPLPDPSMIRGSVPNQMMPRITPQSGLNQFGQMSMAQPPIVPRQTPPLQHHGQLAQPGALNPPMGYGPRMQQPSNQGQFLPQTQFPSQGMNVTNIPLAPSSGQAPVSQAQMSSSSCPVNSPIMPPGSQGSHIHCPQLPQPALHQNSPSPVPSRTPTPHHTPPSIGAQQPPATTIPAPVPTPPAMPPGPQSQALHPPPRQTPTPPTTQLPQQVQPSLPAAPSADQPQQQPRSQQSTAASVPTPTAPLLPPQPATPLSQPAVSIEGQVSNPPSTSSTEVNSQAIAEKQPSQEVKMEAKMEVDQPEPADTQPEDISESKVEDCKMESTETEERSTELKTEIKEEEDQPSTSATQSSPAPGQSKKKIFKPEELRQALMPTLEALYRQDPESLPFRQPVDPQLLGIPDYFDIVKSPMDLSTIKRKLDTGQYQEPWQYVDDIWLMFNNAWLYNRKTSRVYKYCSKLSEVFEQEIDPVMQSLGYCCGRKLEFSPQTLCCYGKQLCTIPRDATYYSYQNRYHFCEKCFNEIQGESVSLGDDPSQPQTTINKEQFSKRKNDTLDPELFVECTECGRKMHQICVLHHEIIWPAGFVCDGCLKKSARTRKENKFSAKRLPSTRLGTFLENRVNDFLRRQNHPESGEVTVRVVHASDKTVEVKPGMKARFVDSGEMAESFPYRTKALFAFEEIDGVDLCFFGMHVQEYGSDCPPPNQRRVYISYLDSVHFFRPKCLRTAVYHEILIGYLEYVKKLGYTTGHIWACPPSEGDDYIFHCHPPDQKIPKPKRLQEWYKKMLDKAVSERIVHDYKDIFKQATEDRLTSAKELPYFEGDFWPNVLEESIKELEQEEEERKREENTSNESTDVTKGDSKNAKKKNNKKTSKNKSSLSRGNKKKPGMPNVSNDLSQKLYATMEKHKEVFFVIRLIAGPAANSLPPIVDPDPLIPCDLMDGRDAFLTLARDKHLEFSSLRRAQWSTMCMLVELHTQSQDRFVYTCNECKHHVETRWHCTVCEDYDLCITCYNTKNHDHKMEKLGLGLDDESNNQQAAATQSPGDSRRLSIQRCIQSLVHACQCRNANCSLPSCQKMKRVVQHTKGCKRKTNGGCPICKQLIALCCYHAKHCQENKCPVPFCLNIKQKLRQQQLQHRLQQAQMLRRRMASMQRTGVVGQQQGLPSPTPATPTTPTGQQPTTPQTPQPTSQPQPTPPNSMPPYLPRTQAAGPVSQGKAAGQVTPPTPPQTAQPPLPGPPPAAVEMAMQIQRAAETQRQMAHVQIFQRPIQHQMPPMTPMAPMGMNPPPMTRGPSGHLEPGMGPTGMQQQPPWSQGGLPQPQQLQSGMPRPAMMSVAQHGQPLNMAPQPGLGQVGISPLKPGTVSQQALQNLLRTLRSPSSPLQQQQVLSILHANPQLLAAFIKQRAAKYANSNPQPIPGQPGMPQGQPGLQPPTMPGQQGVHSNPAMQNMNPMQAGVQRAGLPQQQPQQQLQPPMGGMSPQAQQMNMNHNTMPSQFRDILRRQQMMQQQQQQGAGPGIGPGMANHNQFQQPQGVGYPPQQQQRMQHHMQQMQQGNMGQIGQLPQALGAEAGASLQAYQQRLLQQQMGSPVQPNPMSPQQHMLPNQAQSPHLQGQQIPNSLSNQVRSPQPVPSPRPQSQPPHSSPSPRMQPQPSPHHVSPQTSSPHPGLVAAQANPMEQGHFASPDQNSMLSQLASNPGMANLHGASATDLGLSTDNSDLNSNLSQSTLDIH
# Method: as §1
# (B), the percentage of acetylation was calculated in each of the cases by accounting for the corrections of acetylation in the case of Tat alone.
# [14] = HeLa cells, TSA and sodium butyrate, with versus without curcumin (lane 5 versus 6)
# p300, sequence (Q09472 whole entry, species assumed): as above
compound,measurement,setting,value
COc1cc(/C=C/C(=O)CC(=O)/C=C/c2ccc(O)c(OC)c2)ccc1O [curcumin],Kcat of p300 HAT activity,[1],decreased
same,Km of p300 HAT activity,[1],decreased
same,Vmax of p300 HAT activity,[1],decreased
same,inhibition of CBP HAT activity,[2],potent and specific inhibitor
same,PCAF HAT activity,[3],no change
same,histone methylation by G9a,[4],remains same
same,methylation of core histones by HeLa nuclear extract (NE),[5],no difference
same,transcription from the DNA template,[6],not affected
same,repression of p300 HAT activity dependent chromatin transcription,[7]; 100 μM,≤ 3 fold
same,repression of p300 HAT activity dependent chromatin transcription,[7]; 300 μM,≤ 8 fold
same,apoptosis (nuclear fragmentation),[8],induces the apoptosis
same,acetylation of histones (AUT gel),"[9]; HeLa cells hyperacetylated with TSA and sodium butyrate, 100 μM curcumin",inhibited
same,unacetylated form of histone H4 and H2B (AUT gel),"[9]; HeLa cells, 75 and 100 μM curcumin, 24 hours",modestly increased
same,inhibition of H3 acetylation (western blotting),[9]; [14],6 fold
same,inhibition of H4 acetylation (western blotting),[9]; [14],10 fold
same,p300-mediated acetylation of p53,"[10]; 293 T cells transfected with p53 and p300, 100 μM curcumin",completely inhibits
same,acetylation status of the endogenous p53,"[10]; 293 T cells transfected with p300 alone, 100 μM curcumin",not altered
same,number of syncytia,[11]; highest concentration of curcumin,no syncytia were seen
same,number of syncytia,[11]; increasing concentration of curcumin,dose-dependent reduction
same,"cytotoxicity (viable cells, trypan blue exclusion)",[12],not cytotoxic
same,acetylation of Tat by p300 in vitro,[13],strongly inhibits
